Test results published in the supplement of paper PMC13207355.

Tests used:
Details in all cases: exposure time: 72 h
FT3469 [1] = normal neural stem cell line; assay: surviving fraction (nuclei count normalised to DMSO); higher = more cells surviving (less toxic)
E34 [2] = patient-derived glioblastoma stem cells of proneural subtype; assay: as above
E21 [3] = patient-derived glioblastoma stem cells of mesenchymal subtype; assay: as above
E28 [4] = patient-derived glioblastoma stem cells of classical subtype; assay: as above
E31 [5] = patient-derived glioblastoma stem cells of proneural subtype; assay: as above
E13 [6] = patient-derived glioblastoma stem cells of classical subtype; assay: as above
E57 [7] = patient-derived glioblastoma stem cells of mesenchymal subtype; assay: as above
FT3469 [8] = assay: phenotypic distance (Euclidean, principal components) from DMSO controls (arbitrary units); higher = stronger morphological change
E34 [9] = assay: as above
E21 [10] = assay: as above
E28 [11] = assay: as above
E31 [12] = assay: as above
E13 [13] = assay: as above
E57 [14] = assay: as above
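Throughout, for phenotypic distance (Euclidean, principal components) from DMSO controls: cell Painting imaging in 384-well plates, CellProfiler features reduced to at least 20 principal components, Euclidean distance versus same-plate DMSO vehicle wells (0.1% v/v), median over six images per well.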
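Throughout, for surviving fraction (nuclei count normalised to DMSO): nuclei counted by high-content imaging of Hoechst-stained cells in laminin-coated 384-well plates, relative to 0.1% DMSO vehicle wells, with staurosporine as cell-death control.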

CCC(C)n1ncn(-c2ccc(N3CCN(c4ccc(OCC5COC(Cn6cncn6)(c6ccc(Cl)cc6Cl)O5)cc4)CC3)cc2)c1=O (stereo unspecified) [Itraconazole]
Details	phenotypic distance	surviving fraction
E13 [6], 4.1 nM	–	0.869
E13 [6], 12.3 nM	–	1.07
E13 [6], 37 nM	–	0.889
E13 [6], 111.1 nM	–	1.02
E13 [6], 333.3 nM	–	0.966
E13 [6], 1000 nM	–	0.801
E13 [6], 3000 nM	–	0.653
E13 [13], 4.1 nM	0.693	–
E13 [13], 12.3 nM	0.503	–
E13 [13], 37 nM	1.03	–
E13 [13], 111.1 nM	0.709	–
E13 [13], 333.3 nM	0.981	–
E13 [13], 1000 nM	2.73	–
E13 [13], 3000 nM	4.62	–
E21 [3], 4.1 nM	–	1.03
E21 [3], 12.3 nM	–	1.02
E21 [3], 37 nM	–	1.01
E21 [3], 111.1 nM	–	0.979
E21 [3], 333.3 nM	–	1.05
E21 [3], 1000 nM	–	0.79
E21 [3], 3000 nM	–	0.532
E21 [10], 4.1 nM	0.987	–
E21 [10], 12.3 nM	0.508	–
E21 [10], 37 nM	0.932	–
E21 [10], 111.1 nM	0.917	–
E21 [10], 333.3 nM	0.975	–
E21 [10], 1000 nM	3.76	–
E21 [10], 3000 nM	7.08	–
E28 [4], 4.1 nM	–	1.1
E28 [4], 12.3 nM	–	1.07
E28 [4], 37 nM	–	1.18
E28 [4], 111.1 nM	–	0.888
E28 [4], 333.3 nM	–	1.07
E28 [4], 1000 nM	–	0.897
E28 [4], 3000 nM	–	0.735
E28 [11], 4.1 nM	0.725	–
E28 [11], 12.3 nM	0.689	–
E28 [11], 37 nM	0.685	–
E28 [11], 111.1 nM	0.54	–
E28 [11], 333.3 nM	0.778	–
E28 [11], 1000 nM	1.01	–
E28 [11], 3000 nM	1.89	–
E31 [5], 4.1 nM	–	1.13
E31 [5], 12.3 nM	–	1.12
E31 [5], 37 nM	–	1.1
E31 [5], 111.1 nM	–	1.03
E31 [5], 333.3 nM	–	1.08
E31 [5], 1000 nM	–	1.09
E31 [5], 3000 nM	–	0.996
E31 [12], 4.1 nM	0.564	–
E31 [12], 12.3 nM	0.769	–
E31 [12], 37 nM	0.273	–
E31 [12], 111.1 nM	0.748	–
E31 [12], 333.3 nM	0.758	–
E31 [12], 1000 nM	1.32	–
E31 [12], 3000 nM	5	–
E34 [2], 4.1 nM	–	0.814
E34 [2], 12.3 nM	–	0.933
E34 [2], 37 nM	–	0.922
E34 [2], 111.1 nM	–	1.02
E34 [2], 333.3 nM	–	1.04
E34 [2], 1000 nM	–	0.831
E34 [2], 3000 nM	–	0.701
E34 [9], 4.1 nM	0.775	–
E34 [9], 12.3 nM	0.644	–
E34 [9], 37 nM	0.488	–
E34 [9], 111.1 nM	0.692	–
E34 [9], 333.3 nM	0.901	–
E34 [9], 1000 nM	1.17	–
E34 [9], 3000 nM	4	–
E57 [7], 4.1 nM	–	1.05
E57 [7], 12.3 nM	–	1.03
E57 [7], 37 nM	–	1.02
E57 [7], 111.1 nM	–	1.08
E57 [7], 333.3 nM	–	1.07
E57 [7], 1000 nM	–	0.999
E57 [7], 3000 nM	–	0.558
E57 [14], 4.1 nM	0.542	–
E57 [14], 12.3 nM	0.297	–
E57 [14], 37 nM	0.803	–
E57 [14], 111.1 nM	0.874	–
E57 [14], 333.3 nM	0.482	–
E57 [14], 1000 nM	2.51	–
E57 [14], 3000 nM	6.42	–
FT3469 [1], 4.1 nM	–	0.763
FT3469 [1], 12.3 nM	–	1.05
FT3469 [1], 37 nM	–	1.03
FT3469 [1], 111.1 nM	–	1.06
FT3469 [1], 333.3 nM	–	0.993
FT3469 [1], 1000 nM	–	0.895
FT3469 [1], 3000 nM	–	0.53
FT3469 [8], 4.1 nM	0.966	–
FT3469 [8], 12.3 nM	0.554	–
FT3469 [8], 37 nM	1.33	–
FT3469 [8], 111.1 nM	3.66	–
FT3469 [8], 333.3 nM	0.753	–
FT3469 [8], 1000 nM	1.14	–
FT3469 [8], 3000 nM	3.43	–

CC[C@@H]1C(=O)N(C)c2cnc(Nc3ccc(C(=O)N[C@H]4CC[C@H](N5CCN(CC6CC6)CC5)CC4)cc3OC)nc2N1C(C)C [Volasertib]
Details	phenotypic distance	surviving fraction
E13 [6], 4.1 nM	–	0.449
E13 [6], 12.3 nM	–	0.418
E13 [6], 37 nM	–	0.387
E13 [6], 111.1 nM	–	0.387
E13 [6], 333.3 nM	–	0.348
E13 [6], 1000 nM	–	0.301
E13 [6], 3000 nM	–	0.322
E13 [13], 4.1 nM	4.53	–
E13 [13], 12.3 nM	4.86	–
E13 [13], 37 nM	5.16	–
E13 [13], 111.1 nM	4.97	–
E13 [13], 333.3 nM	4.79	–
E13 [13], 1000 nM	5.82	–
E13 [13], 3000 nM	5.69	–
E21 [3], 4.1 nM	–	0.459
E21 [3], 12.3 nM	–	0.447
E21 [3], 37 nM	–	0.372
E21 [3], 111.1 nM	–	0.289
E21 [3], 333.3 nM	–	0.207
E21 [3], 1000 nM	–	0.205
E21 [3], 3000 nM	–	0.274
E21 [10], 4.1 nM	2.95	–
E21 [10], 12.3 nM	3.49	–
E21 [10], 37 nM	3.86	–
E21 [10], 111.1 nM	6.48	–
E21 [10], 333.3 nM	5.25	–
E21 [10], 1000 nM	6.04	–
E21 [10], 3000 nM	7.2	–
E28 [4], 4.1 nM	–	0.613
E28 [4], 12.3 nM	–	0.688
E28 [4], 37 nM	–	0.648
E28 [4], 111.1 nM	–	0.439
E28 [4], 333.3 nM	–	0.459
E28 [4], 1000 nM	–	0.386
E28 [4], 3000 nM	–	0.39
E28 [11], 4.1 nM	1.97	–
E28 [11], 12.3 nM	1.64	–
E28 [11], 37 nM	1.4	–
E28 [11], 111.1 nM	2.98	–
E28 [11], 333.3 nM	2.89	–
E28 [11], 1000 nM	3.11	–
E28 [11], 3000 nM	4.22	–
E31 [5], 4.1 nM	–	0.275
E31 [5], 12.3 nM	–	0.237
E31 [5], 37 nM	–	0.251
E31 [5], 111.1 nM	–	0.163
E31 [5], 333.3 nM	–	0.161
E31 [5], 1000 nM	–	0.148
E31 [5], 3000 nM	–	0.178
E31 [12], 4.1 nM	2.88	–
E31 [12], 12.3 nM	2.73	–
E31 [12], 37 nM	2.37	–
E31 [12], 111.1 nM	3.54	–
E31 [12], 333.3 nM	3.91	–
E31 [12], 1000 nM	4.92	–
E31 [12], 3000 nM	3.6	–
E34 [2], 4.1 nM	–	0.769
E34 [2], 12.3 nM	–	0.695
E34 [2], 37 nM	–	0.644
E34 [2], 111.1 nM	–	0.624
E34 [2], 333.3 nM	–	0.503
E34 [2], 1000 nM	–	0.414
E34 [2], 3000 nM	–	0.501
E34 [9], 4.1 nM	1.64	–
E34 [9], 12.3 nM	1.44	–
E34 [9], 37 nM	2.23	–
E34 [9], 111.1 nM	2.45	–
E34 [9], 333.3 nM	3.05	–
E34 [9], 1000 nM	4.15	–
E34 [9], 3000 nM	3.53	–
E57 [7], 4.1 nM	–	0.623
E57 [7], 12.3 nM	–	0.679
E57 [7], 37 nM	–	0.463
E57 [7], 111.1 nM	–	0.205
E57 [7], 333.3 nM	–	0.123
E57 [7], 1000 nM	–	0.12
E57 [7], 3000 nM	–	0.141
E57 [14], 4.1 nM	2.53	–
E57 [14], 12.3 nM	2.05	–
E57 [14], 37 nM	3.22	–
E57 [14], 111.1 nM	7.13	–
E57 [14], 333.3 nM	6.28	–
E57 [14], 1000 nM	6.68	–
E57 [14], 3000 nM	8.42	–
FT3469 [1], 4.1 nM	–	0.874
FT3469 [1], 12.3 nM	–	0.885
FT3469 [1], 37 nM	–	0.808
FT3469 [1], 111.1 nM	–	0.646
FT3469 [1], 333.3 nM	–	0.588
FT3469 [1], 1000 nM	–	0.506
FT3469 [1], 3000 nM	–	0.544
FT3469 [8], 4.1 nM	2.22	–
FT3469 [8], 12.3 nM	1.25	–
FT3469 [8], 37 nM	1.74	–
FT3469 [8], 111.1 nM	2.57	–
FT3469 [8], 333.3 nM	2.83	–
FT3469 [8], 1000 nM	3.25	–
FT3469 [8], 3000 nM	2.99	–
